According to patent publication US20260217698A1 (BEYANG THERAPEUTICS CO., LTD., priority 2022, published 2026):

How the values were obtained:
[1] = biological target: VEGFR2 (Homo sapiens, UniProt P35968); assay: Kinase inhibition, Mobility Shift Assay/IMAP, VEGFR2; format: biochemical; set-up: purchased Carna 08-191
Source text: (§1) This assay directly monitored the ability of compounds to inhibit kinase phosphorylation by measuring non-phosphorylated and phosphorylated substrates in kinase reactions by using Mobility Shift Assays/IMAP™ analysis.
(§2) Read the conversion ratio data on CaliperEZ Reader II. Convert conversion rates into inhibition ratio data.
(§3) “Min” indicates the readout of the control well without the addition of enzymes; and “Max” indicates the readout of the control well with the addition of DMSO Fit IC50 values with XL Fit excel add-in version […].
(§4) X indicates the log value of compound concentration, and Y indicates the inhibition ratio (% inhibition).

[2] = biological target: T1, TIE2 (Homo sapiens, UniProt Q02763); assay: Kinase inhibition, Mobility Shift Assay/IMAP, TIE2; format: biochemical
T1 construct: purchased BPS 40270
Source text: as §1, §2, §3, §4

[3] = biological target: T2, EGFR (Homo sapiens, UniProt P00533); assay: Kinase inhibition, Mobility Shift Assay/IMAP, EGFR; format: biochemical
T2 construct: purchased Carna 08-115
Source text: as §1, §2, §3, §4

[4] = system: melanin; assay: Binding capacity of compounds to melanin; format: in vitro ADME, cuttlefish (Sepia officinalis); conditions: cuttlefish (Sepia officinalis), melanin suspension (1 mg/mL); 1 mg/mL melanin in PBS pH 7.4, 2 μM compound, 2 h at 37° C.; read-out: Fu % (percentage of free drug)
Source text: Pigmented eye tissues contain melanin in intracellular melanosomes. Drugs bind to melanin to varying degrees, ranging from non-binding to extensive binding. Therefore, melanin binding is an important feature that affects drug delivery and biodistribution in the eye. The binding capacity of the compound to the melanin must be considered in the development of ophthalmic drugs.
Melanin was derived from the melanin of cuttlefish (Sepia officinalis) and was commercially available from Sigma Aldrich (St Louis, MO).
First, prepare 1 mg/mL melanin suspension with PBS (pH 7.4). As a washing step for the matrix, centrifuge the suspended particles for 5 min at 3000 rpm. Resuspend the resulting particles in a fresh PBS buffer, heat to 37° C. over continuous shaking and incubate it for 1 h. Accurately pipette 2 μL of the test stock solution (0.1 mM) into 98 μL of melanin suspension (1 mg/mL) to achieve a final incubation concentration of 2 μM. Similarly, accurately pipette 2 μL of the stock solution (0.1 mM) to 98 μL of PBS buffer (containing 0.1% BSA) as a blank control sample. Incubate the samples in a shaker (80-90 rpm) for 2 h at 37° C. Then, centrifuge the samples at room temperature. Pipette 50 μL of the supernatant and add 50 μL of precipitant (containing an internal standard). After protein precipitation of all the above samples, centrifuge the samples to collect the supernatants, dilute the supernatants with water (if necessary) and inject them for analysis. At the same time, measure the positive controls, including the high-binding compounds Sunitinib and chloroquine and the low-binding compound celecoxib. Establish an LC-MS/MS method for determining compound concentrations, and calibrate the peak area ratio of analyte/internal standard (Analyte/AIS) in the measured sample by the dilution factor to take it as an alternative concentration for the sample for data processing. The binding rate (Fb) of a compound in melanin was calculated as: […]
Ctest was the concentration of the compound in the melanin-incubated sample or the peak area ratio of the test compound to the internal standard. Ccontrol was the concentration of the compound in the blank control sample or the peak area ratio of the test compound to the internal standard. […]

VEGFR2, sequence (P35968 790-1356 limits assumed): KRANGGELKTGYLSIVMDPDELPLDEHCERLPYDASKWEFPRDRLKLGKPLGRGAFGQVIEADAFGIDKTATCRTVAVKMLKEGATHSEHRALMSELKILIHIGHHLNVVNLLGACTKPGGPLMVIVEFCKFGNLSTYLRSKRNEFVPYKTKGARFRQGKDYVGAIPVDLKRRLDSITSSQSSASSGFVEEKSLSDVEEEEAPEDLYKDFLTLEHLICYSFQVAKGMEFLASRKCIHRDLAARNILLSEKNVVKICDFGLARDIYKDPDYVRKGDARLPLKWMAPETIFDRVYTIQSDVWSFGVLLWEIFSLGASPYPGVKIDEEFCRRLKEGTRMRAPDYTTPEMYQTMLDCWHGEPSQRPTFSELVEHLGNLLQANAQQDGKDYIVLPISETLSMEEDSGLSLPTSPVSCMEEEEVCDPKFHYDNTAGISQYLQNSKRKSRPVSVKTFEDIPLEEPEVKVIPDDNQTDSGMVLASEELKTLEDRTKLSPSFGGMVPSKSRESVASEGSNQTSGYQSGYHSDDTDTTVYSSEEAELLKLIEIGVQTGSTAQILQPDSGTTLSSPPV
T2 sequence (P00533 669-1210 limits assumed): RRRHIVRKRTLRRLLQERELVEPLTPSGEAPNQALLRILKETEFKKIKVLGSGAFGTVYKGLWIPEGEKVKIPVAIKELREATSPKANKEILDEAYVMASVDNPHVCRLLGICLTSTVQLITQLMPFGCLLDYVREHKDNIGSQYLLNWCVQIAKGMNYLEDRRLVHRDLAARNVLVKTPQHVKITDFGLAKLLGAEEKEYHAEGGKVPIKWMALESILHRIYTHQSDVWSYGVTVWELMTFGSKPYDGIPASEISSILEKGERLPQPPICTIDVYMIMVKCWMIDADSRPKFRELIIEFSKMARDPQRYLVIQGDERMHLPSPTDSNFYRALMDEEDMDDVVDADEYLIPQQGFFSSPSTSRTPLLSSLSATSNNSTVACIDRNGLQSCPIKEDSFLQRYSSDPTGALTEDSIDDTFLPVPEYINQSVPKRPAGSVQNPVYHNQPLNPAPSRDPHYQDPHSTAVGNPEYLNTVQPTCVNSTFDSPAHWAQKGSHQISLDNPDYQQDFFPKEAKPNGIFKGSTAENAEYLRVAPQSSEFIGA
T1 sequence (Q02763 23-1124): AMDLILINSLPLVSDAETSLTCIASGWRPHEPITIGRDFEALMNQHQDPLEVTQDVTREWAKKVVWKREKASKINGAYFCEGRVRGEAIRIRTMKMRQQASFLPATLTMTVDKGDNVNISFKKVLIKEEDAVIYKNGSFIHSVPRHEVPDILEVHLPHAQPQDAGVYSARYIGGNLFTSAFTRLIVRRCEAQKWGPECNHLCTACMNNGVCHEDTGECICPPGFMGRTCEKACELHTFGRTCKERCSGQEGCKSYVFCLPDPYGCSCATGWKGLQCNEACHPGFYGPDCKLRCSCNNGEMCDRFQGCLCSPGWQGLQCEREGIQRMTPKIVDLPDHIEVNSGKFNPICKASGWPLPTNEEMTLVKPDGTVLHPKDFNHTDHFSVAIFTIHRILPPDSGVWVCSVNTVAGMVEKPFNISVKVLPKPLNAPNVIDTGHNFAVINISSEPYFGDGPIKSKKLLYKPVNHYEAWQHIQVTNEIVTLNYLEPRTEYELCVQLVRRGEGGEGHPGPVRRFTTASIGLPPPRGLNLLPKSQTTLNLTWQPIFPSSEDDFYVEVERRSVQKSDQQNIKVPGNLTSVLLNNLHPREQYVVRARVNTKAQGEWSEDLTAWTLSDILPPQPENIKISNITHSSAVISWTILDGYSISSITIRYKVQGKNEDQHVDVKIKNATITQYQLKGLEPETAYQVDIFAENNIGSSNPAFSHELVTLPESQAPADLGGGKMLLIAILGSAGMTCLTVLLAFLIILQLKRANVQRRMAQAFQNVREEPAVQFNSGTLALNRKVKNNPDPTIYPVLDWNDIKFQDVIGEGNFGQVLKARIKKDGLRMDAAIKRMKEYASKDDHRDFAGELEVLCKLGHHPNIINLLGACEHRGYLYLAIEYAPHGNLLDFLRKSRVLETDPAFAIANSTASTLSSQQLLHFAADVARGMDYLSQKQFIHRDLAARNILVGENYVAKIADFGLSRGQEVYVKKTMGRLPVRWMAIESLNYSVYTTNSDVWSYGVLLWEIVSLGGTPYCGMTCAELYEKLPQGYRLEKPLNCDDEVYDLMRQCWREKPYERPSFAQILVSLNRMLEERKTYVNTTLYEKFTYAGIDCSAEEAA

Row | SMILES | IC50 [1] [nM] | IC50 [2] [nM] | IC50 [3] [nM] | fraction unbound at 2 h, 2 μM [4]
1 | COc1ccc(COc2nsc(NC(=O)NCCCCN3CCCC3)c2C(N)=O)cn1 [Compound T033] | 51.9 | 1460 | 54900 | 
2 | NC(=O)c1c(OCc2ccc3c(c2)CCO3)nsc1NC(=O)NCCCCN1CCCC1 [Compound T044, 3-((2,3-dihydrobenzofuran-5-yl)methoxy)-5-(3-(4-(pyrrolidin-1-yl)butyl)ureido)isothiazole-4-carboxamide] | 128 | 1640 | 10000 | 
3 | NC(=O)c1c(OCc2cccc(-n3cccn3)c2)nsc1NC(=O)NCCCCN1CCCC1 [Compound T068, 3-((3-(1H-pyrazol-1-yl)benzyl)oxy)-5-(3-(4-(pyrrolidin-1-yl)butyl)ureido)isothiazole-4-carboxamide] | 171 | 1610 | 4410 | 
4 | CN1CCN(CCCNC(=O)Nc2snc(OCc3cccc(C(=O)C4CC4)c3)c2C(N)=O)CC1 [Compound T086, 3-((3-(cyclopropanecarbonyl)benzyl)oxy)-5-(3-(3-(4-methylpiperazin-1-yl)propyl)ureido)isothiazole-4-carboxamide] |  | 895 | 6830 | 
5 | COc1ccc(F)c(COc2nsc(NC(=O)NCCCCN3CCCC3)c2C(N)=O)c1 [Compound T092, 3-[(2-fluoro-5-methoxy-phenyl)methoxy]-5-(4-pyrrolidin-1-ylbutylcarbamoylamino)isothiazole-4-carboxamide] | 17.2 | 596 |  | 0.031
6 | COc1cc(COc2nsc(NC(=O)NCCCCN3CCCC3)c2C(N)=O)c(F)c(OC)c1 [Compound T094, 3-[(2-fluoro-3,5-dimethoxy-phenyl)methoxy]-5-(4-pyrrolidin-1-ylbutylcarbamoylamino)isothiazole-4-carboxamide] | 9.1 | 413 | > 60000 | 0.0481
7 | CN1CC[C@@H](CCNC(=O)Nc2snc(OCc3cc4c(cc3F)CCO4)c2C(N)=O)C1 [Compound T102, 3-[(5-fluoro-2,3-dihydrobenzofuran-6-yl)methoxy]-5-[2-[(3R)-1-methylpyrrolidin-3-yl]ethylcarbamoylamino]isothiazole-4-carboxamide] | 5.5 | 142 | 9890 | 0.0235
8 | COc1ccc(F)c(COc2nsc(NC(=O)NCCCN3CCN(C)CC3)c2C(N)=O)c1F [Compound T107, 3-[(2,6-difluoro-3-methoxy-phenyl)methoxy]-5-[3-(4-methylpiperazin-1-yl)propylcarbamoylamino]isothiazole-4-carboxamide] | 8.57 | 124 | 9140 | 0.0403
9 | NC(=O)c1c(OCc2cc(C(=O)NC3CC3)ccc2F)nsc1NC(=O)NCCC1CCN(CCF)CC1 [Compound T108, 3-[[5-(cyclopropylcarbamoyl)-2-fluoro-phenyl]methoxy]-5-[2-[1-(2-fluoroethyl)-4-piperidyl]ethylcarbamoylamino]isothiazole-4-carboxamide] | 0.72 | 621 |  | 0.0271
10 | COc1ccc(F)c(COc2nsc(NC(=O)NCCCN3CC[C@H](F)C3)c2C(N)=O)c1F [Compound T120, 3-[(2,6-difluoro-3-methoxy-phenyl)methoxy]-5-[3-[(3S)-3-fluoropyrrolidin-1-yl]propylcarbamoylamino]isothiazole-4-carboxamide] | 47 | 397 | 40700 | 0.0173
11 | COc1ccc(F)c(COc2nsc(NC(=O)NCCCN3CC[C@@H](F)C3)c2C(N)=O)c1F [Compound T121, 3-[(2,6-difluoro-3-methoxy-phenyl)methoxy]-5-[3-[(3R)-3-fluoropyrrolidin-1-yl]propylcarbamoylamino]isothiazole-4-carboxamide] | 40 | 230 | 17200 | 
12 | COc1ccc(F)c(COc2nsc(NC(=O)NCCCCN3CCC(F)CC3)c2C(N)=O)c1F [Compound T125, 3-[(2,6-difluoro-3-methoxy-phenyl)methoxy]-5-[4-(4-fluoro-1-piperidyl)butylcarbamoylamino]isothiazole-4-carboxamide] | 13.5 | 161 | 9710 | 0.0402
13 | COc1ccc(F)c(COc2nsc(NC(=O)NCCCCN3CCC(F)(F)CC3)c2C(N)=O)c1F [Compound T130, 3-[(2,6-difluoro-3-methoxy-phenyl)methoxy]-5-[4-(4,4-difluoro-1-piperidyl)butylcarbamoylamino]isothiazole-4-carboxamide] | 41 | 471 | 13700 | 0.0709
14 | CN1CCC(CCNC(=O)Nc2snc(OCc3cc(C(=O)NC4CC4)ccc3Cl)c2C(N)=O)CC1 [Compound T139, 3-[[2-chloro-5-(cyclopropylcarbamoyl)phenyl]methoxy]-5-[2-(1-methyl-4-piperidyl)ethylcarbamoylamino]isothiazole-4-carboxamide] | 0.41 | 366 | 10100 | 
15 | COc1ccc(Cl)c(COc2nsc(NC(=O)NCCCCN3CCCC3)c2C(N)=O)c1F [Compound T146] | 10.5 | 739 | 26100 | 
16 | O=C(NCCCN1CC[C@H](F)C1)Nc1snc(OCc2cc(C(=O)NC3CC3)ccc2F)c1C(=O)O [Compound T155, 3-[[5-(cyclopropylcarbamoyl)-2-fluoro-phenyl]methoxy]-5-[3-[(3S)-3-fluoropyrrolidin-1-yl]propylcarbamoylamino]isothiazole-4-carboxylic acid] |  | > 60000 | > 60000 | 
17 | NC(=O)c1c(OCc2cc(C(=O)NC3CC3)ccc2F)nsc1NC(=O)NCCCN1CCN(C2CC2)CC1 [Compound T158, 3-[[5-(cyclopropylcarbamoyl)-2-fluoro-phenyl]methoxy]-5-[3-(4-cyclopropylpiperazin-1-yl)propylcarbamoylamino]isothiazole-4-carboxamide] | 1.05 | 5380 | 9840 | 
18 | N#CCCNC(=O)Nc1snc(OCc2cc(C(=O)NC3CC3)ccc2F)c1C(N)=O [Compound T162, 5-(2-cyanoethylcarbamoylamino)-3-[[5-(cyclopropylcarbamoyl)-2-fluoro-phenyl]methoxy]isothiazole-4-carboxamide] | 3.05 | 7360 |  | 
19 | NC(=O)c1c(OCc2cc(C(=O)NC3CC3)ccc2Cl)nsc1NC(=O)NCCCN1CC[C@H](F)C1 [Compound T166, 3-[[2-chloro-5-(cyclopropylcarbamoyl)phenyl]methoxy]-5-[3-[(3S)-3-fluoropyrrolidin-1-yl]propylcarbamoylamino]isothiazole-4-carboxamide] | 0.45 | 1740 | 15600 | 
20 | CC(C)(C)[Si](C)(C)OCCCNC(=O)Nc1snc(OCc2cc(C(=O)NC3CC3)ccc2F)c1C(N)=O [Compound T169, 5-[3-[tert-butyl(dimethyl)silyl]oxypropylcarbamoylamino]-3-[[5-(cyclopropylcarbamoyl)-2-fluoro-phenyl]methoxy]isothiazole-4-carboxamide] | 16.4 | > 60000 | > 60000 | 
21 | NC(=O)c1c(OCc2cc(C(=O)O)ccc2F)nsc1NC(=O)NCCCN1CC[C@H](F)C1 [Compound T171, 3-[[4-carbamyl-5-[3-[(3S)-3-fluoropyrrolidin-1-yl]propylcarbamylamino]isothiazol-3-yl]oxymethyl]-4-fluoro-benzoic acid] |  | 5850 | 29100 | 
22 | NC(=O)c1c(OCc2cc(C(=O)NC3CC3)ccc2F)nsc1NC(=O)NCCC(=O)O [Compound T172, 3-[[4-carbamoyl-3-[[5-(cyclopropylcarbamoyl)-2-fluoro-phenyl]methoxy]isothiazol-5-yl]carbamoylamino]propanoic acid] | 2.6 | 3260 |  | 
